Results on 11 molecules are retold here after article PMC9820303, “^αN-Acetyl β-Endorphin Is an Endogenous Ligand of σ1Rs That Regulates Mu-Opioid Receptor Signaling by Exchanging G Proteins for σ2Rs in σ1R Oligomers” (International Journal of Molecular Sciences, 2022).

The target in assay [1] is σ1R-σ2R (Mus musculus, UniProt O55242). As to the kind of experiment: In vitro σ1R-σ2R association of recombinant proteins (HaloLink-σ2R, Western blot). It is filed as biochemical, murine. On the set-up: The coding region of the full-length murine σ1R (AF004927); GST (N, cleaved yes); made in house; host or cells: E. coli BL21 (KRX). The settings on record: for effect on σ1R-σ2R association: increasing concentrations, 30 min RT, vs control without ligand; for effect on the disruption of σ1R-σ2R associations by β-End 1–31: fixed concentration of β-End 1–31 (or β-End 1–27), increasing competitor; for EC50 to disrupt σ1R-σ2R interactions (range in words): 50 mM Tris-HCl pH 7.4, 0.2% CHAPS, 2.5 mM CaCl2, 30 min RT, n = 3. On the procedure: (§1) Figure 7 Effect of β-End 1–31, ^αN-acetyl β-End 1–31 and their N-terminal derivatives on σ1R-σ2R, σ1R-NR1 C1 and σ1R-BiP associations. Amino acid sequence of β-End 1–31 showing derivatives 1–26 and 1–27. (A) HaloLink-attached σ2Rs were incubated for 30 min at RT in the presence of σ1Rs (100 nM) in 300 μL of 50 mM Tris-HCl (pH 7.4), 0.2% CHAPS, and 2.5 mM CaCl2. After removing the unbound σ1R proteins, the effects of increasing the peptide concentrations on σ1R-σ2R associations were studied. At the end of the incubation, protein complexes bound to HaloLink-σ2R were obtained by centrifugation, washed three times, solubilized in 2× Laemmli buffer containing β-mercaptoethanol, resolved by SDS-PAGE, and analyzed by Western blotting (for more details, see Section 4). This protocol was also used to assess the effect of ligands on (B) σ1R-NR1 C1 and (C) σ1R-BiP associations. Data were compared to that of the control, which was obtained in the absence of ligands. (A–C) Data are the mean ± SD, n = 3. (D) The β-End 1–31 structural models were predicted by Novafold (DNASTAR Lasergene protein v.17, Inc., Madison, WI, USA). Ribbon model: The 3D structure, charge distribution and hydrophobicity map of β-End 1–31 are shown. Positive charges are shown in red and negative charges in blue. Polar surfaces are shown in yellow, and nonpolar surfaces are shown in orange. Linear model: the opioid (1–5) and flexible region (8–11) sequences are shown in green and orange, respectively, and the amphiphilic helix (15–25) is shown in pink.
Chain of σ1R-σ2R (O55242 whole entry): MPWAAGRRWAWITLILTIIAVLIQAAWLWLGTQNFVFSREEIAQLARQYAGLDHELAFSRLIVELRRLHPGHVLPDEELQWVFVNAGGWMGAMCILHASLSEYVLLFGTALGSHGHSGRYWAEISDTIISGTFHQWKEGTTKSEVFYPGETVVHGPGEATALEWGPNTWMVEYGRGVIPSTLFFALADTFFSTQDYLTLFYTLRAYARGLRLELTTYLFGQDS
(§2) The recombinant σ1R (100 nM) was incubated either with Haloprotein (negative control) or together with the immobilized σ2R, NR1 C0-C1-C2 or BiP proteins in 300 µL of a buffer containing 50 mM Tris-HCl (pH 7.4) and 0.2% CHAPS in the presence of 2.5 mM CaCl2 for 30 min at RT. After removal of the unbound σ1R, the agarose-attached complexes were incubated for 30 min with rotation at RT in the presence of increasing concentrations of the ligands in a final reaction volume of 300 µL [50 mM Tris-HCl (pH 7.4), 2.5 mM CaCl2 and 0.2% CHAPS]. Ligands were usually dissolved in aqueous solutions; however, when an organic solvent such as DMSO was required to incorporate, e.g., pregnenolone sulfate, the solvent remained below 1% in the assay buffer. Agarose pellets containing the bound proteins were obtained by centrifugation, washed and resuspended thrice in the presence of 2.5 mM CaCl2, solubilized in 2× Laemmli buffer plus β-mercaptoethanol, and analyzed by Western blotting.
(§3) Because all the assays were performed with recombinant proteins, the immune signals provided a single band of the expected size, which was used for the subsequent densitometry analysis. Accordingly, no other regions of the blots provided information and were routinely excluded from the analysis.
Figure S7. Effect of σ1R agonist/antagonist ligands on σ1R-σ2R heterodimers. (A-C) Agarose (Θ)- attached σ2Rs captured recombinant σ1Rs. After removing unbound σ1R proteins, the Θ-σ2R.σ1R complexes were incubated with a ﬁxed concentration of a selected L1 ligand (indicated in brackets) in the absence and presence of increasing concentrations of competing σ1R ligands as indicated. The σ1Rs that remained attached to the Θ-σ2Rs were evaluated by Western blotting. * Signiﬁcant differences with respect to the control group that was incubated without L1 ligands. ANOVA followed by the Holm-Sidak multiple comparisons test, p < 0.05. For details, see Methods and Figure 6A. Representative blots are […]
Figure S8. Effect of the physiological and nonphysiological sequences of β-End 1-31 and classical σ1R ligands on BiP-σ1R, σ2R-σ1R and NR1 C1-σ1R associations . Agarose-BiP was loaded with σ1Rs, and after the unbound σ1Rs were removed, the agarose-BiP-σ1R complexes were incubated in the absence (control) and presence of increasing concentrations of (A) β-End 1-31 C-terminal physiological derivatives and (B) classical σ1R ligands. C) Agarose-σ2R loaded with σ1Rs was incubated in the […]
In general terms: Immunoblotting shows a protein as a band on a membrane.

Assay [2] concerns the target T1, σ1R-NR1 C1 (Mus musculus, UniProt O55242).
T1 construct: The coding region of the full-length murine σ1R (AF004927); GST (N, cleaved yes); made in house; host or cells: E. coli BL21 (KRX)
In words: In vitro σ1R-NR1 C1 association of recombinant proteins (Western blot). It is filed as biochemical, murine. To be noted: increasing concentrations; 30 min RT; vs control without ligand. On the procedure:
as §1, §2, §3
Figure S8. Effect of the physiological and nonphysiological sequences of β-End 1-31 and classical σ1R ligands on BiP-σ1R, σ2R-σ1R and NR1 C1-σ1R associations . […]
D) Agarose-NR1 C1 loaded with […]
σ1Rs were incubated in the absence (control) and with nonphysiological derivatives of β-End 1-31. A-D) The σ1Rs that remained attached to the agarose complexes were evaluated by Western blotting. The […]
(1 picture or pasted object on this page, not shown here)
Figure S9. Effect of σ1R agonist/antagonist ligands on σ1R-NR1 C1 associations. Θ-Agarose-NR1 C1 was loaded with recombinant σ1Rs. After unbound σ1R proteins were removed, the complexes were incubated with (A) 1 nM β-End 1-31, (B) αN-acetyl β-End 1-31, (C-D) β-End 28-31 in the absence (black columns) and presence of (A) 10 nM or (B-D) increasing concentrations of competing σ1R ligands as indicated. The σ1Rs that remained attached to the Θ-σ2Rs were evaluated by Western blotting. The […]
Prog is progesterone; PregSulfate is pregnenolone sulfate; Nac is […]

T1 sequence (O55242 whole entry): as above

Turning to `Br.Br.CN(C)CCN(C)CCc1ccc(Cl)c(Cl)c1` [BD1047, N′-[2-(3,4-dichlorophenyl)ethyl]-N,N,N′-trimethylethane-1,2-diamine;dihydrobromide, reference compound], the “effect on σ1R-σ2R association” value in assay [1] is recorded as “did the opposite”. Moreover, in assay [2], the “effect on σ1R-NR1 C1 association” value is recorded as “did the opposite”.

As for `COC(=O)[C@]1(c2ccc(C)cc2)C[C@@H]1CN1CCC(O)(c2ccccc2)CC1` [PPCC, (1R,2S/1S,2R)-2-[4-hydroxy-4-phenylpiperidin-1-yl)methyl]-1-(4-methylphenyl) cyclopropanecarboxylate, reference compound], in assay [1], the “effect on σ1R-σ2R association” value was “impaired σ1R associations with σ2R and BiP”. For the same molecule, the “effect on σ1R-NR1 C1 association” value in assay [2] is reported as “increased σ1R-NR1 C1 complexes”.

Turning to `Cl.O=C(OCCN1CCOCC1)C1(c2ccccc2)CCCCC1` [PRE084, 2-(4-morpholinethyl)-1-phenylcyclohexanecarboxylate hydrochloride, reference compound], the “effect on σ1R-σ2R association” value in assay [1] is “impaired σ1R associations with σ2R and BiP”. Moreover, the “effect on σ1R-NR1 C1 association” value in assay [2] was “increased σ1R-NR1 C1 complexes”.

In the case of `Cc1cc(OCCN2CCOCC2)nn1-c1ccc2ccccc2c1` [S1RA], the “effect on σ1R-σ2R association” value in assay [1] is listed as “did the opposite”. In assay [2], the “effect on σ1R-NR1 C1 association” value was “did the opposite”.

On to “KKGE [β-End 28–31, C-terminal tetrapeptide of β-End 1–31]”, for which, in assay [1], the “effect on the disruption of σ1R-σ2R associations by β-End 1–31” value is “counteracted” and the “effect on σ1R-σ2R association” value is on record as “promoted σ1R-σ2R associations”. For the same molecule, the “effect on σ1R-NR1 C1 association” value in assay [2] is “reduced σ1R-NR1 C1 interactions”.

Consider “YKKGE [β-End 27–31, C-terminal pentapeptide of β-End 1–31]”, for which the “effect on σ1R-σ2R association” value in assay [1] is listed as “reduced σ1R-σ2R”. Moreover, the “effect on σ1R-NR1 C1 association” value in assay [2] is on record as “increased σ1R-NR1 C1”.

As to “^αN-acetyl β-End 1–31: β-End 1–31 acetylated at N terminal Y1, α position”, the “affinity toward σ1R indicated by the potency to counteract the β-End 1–31 effect” value in assay [1] (competition with β-End 1–31 on σ1R-σ2R (Figure S7A)) is reported as “fM range”. Moreover, in assay [1], the “effect on the disruption of σ1R-σ2R associations by β-End 1–31” value is “antagonized” and the “effect on σ1R-σ2R association” value is “strengthened”. The “effect on σ1R-NR1 C1 association” value in assay [2] was “separated σ1Rs from NR1 C1 subunits at pM concentrations”.

As for “β-End 1–26: β-End 1–31 derivative without 5 C-terminal residues (YGGFMTSEKSQTPLVTLFKNAIIKNA; Beta-endorphin; UniProt P01189 237-262, looked up, fragment)”, the “EC50 to disrupt σ1R-σ2R interactions (range in words)” value in assay [1] was “low–medium nM range”. Also, the “effect on σ1R-NR1 C1 association” value in assay [2] is given as “promoted σ1R-NR1 C1 associations at pM concentrations”.

Take “β-End 1–27: β-End 1–31 derivative without 4 C-terminal residues (YGGFMTSEKSQTPLVTLFKNAIIKNAY; Beta-endorphin; UniProt P01189 237-263, looked up, fragment)”: the “EC50 to disrupt σ1R-σ2R interactions (range in words)” value in assay [1] is “low–medium nM range”. Moreover, in assay [2], the “effect on σ1R-NR1 C1 association” value is listed as “weak or no effects”.

With “β-End 6–31: β-End 1–31 lacking the N-terminal met-enkephalin 1–5 sequence (TSEKSQTPLVTLFKNAIIKNAYKKGE; Beta-endorphin; UniProt P01189 242-267, looked up, fragment)”, the “effect on σ1R-σ2R association” value in assay [1] was “diminished σ1R-σ2R associations”. The “effect on σ1R-NR1 C1 association” value in assay [2] is recorded as “began to separate the complex”.

For “β-End 22–31: nonphysiological C-terminal sequence of β-End 1–31 (IIKNAYKKGE; Beta-endorphin; UniProt P01189 258-267, looked up, fragment)”, the “effect on σ1R-σ2R association” value in assay [1] is “promoted their association”. Also, in assay [2], the “effect on σ1R-NR1 C1 association” value is “persisted”.
